Patent publication US11161888B2, “Method for regulating targeting of Cyclin Y (CCNY) protein to synapses” (KOREA INSTITUTE OF SCIENCE AND TECHNOLOGY, priority 2018, dated 2021)
“Also recorded” adds a separate entry of the source.

What was measured:
CCNY = assay: Acyl-biotinyl exchange (ABE) assay of CCNY palmitoylation in HEK293T cells; format: cell-based; details: 4 hours prior to ABE assay, HEK293T cells (FIG. 3B)
Procedure: (§1) All images are single-plane images. […] The scale bars are 5 (B and C) show the results of an acyl-biotinyl exchange (ABE) assay. CCNY-WT-EGFP or CCNY-Mut(C7, 8S)-EGFP were overexpressed in HEK293T cells, and the cells were subsequently treated with a palmitoylation blocker, 2-bromopalmitate (2-BP, 30 μM or 100 μM), for 4 hours prior to the ABE assay.
(§2) The ABE assay was performed as previously described (Wan et al., 2007) with minor modifications. Briefly, HEK293T cells were transfected with CCNY-WT-EGFP, CCNY-Mut(C7,8S)-EGFP, or PSD-95-WT-EGFP. PSD-95-WT-EGFP was transfected with or without DHHC2-HA. Twenty four hours after transfection, the cells were lysed in lysis buffer (150 mM NaCl, 50 mM Tris, 5 mM EDTA, protease inhibitor cocktail, 1 mM PMSF, pH 7.4) with 1.7% Triton X-100 and 10 mM N-ethylmaleimide (NEM) for 1 hour at 4° C. The cell lysates were centrifuged at 250 g for 5 minutes at 4° C., and the resultant supernatants were applied to the chloroform-methanol (CM) precipitation methodology. […] The eluted samples in loading buffer (50 mM Tris-HCl, pH 6.8, 5% β-mercaptoethanol, 2% SDS, 0.01% bromophenol blue) were then boiled for 10 minutes at 95° C., applied to SDS-PAGE, and analyzed by immunoreactions with anti-CCNY (Proteintech Group), anti-PSD-95 (Thermo Scientific) and anti-GFP (Roche). […]

[1] = test system: hippocampal neurons overexpressing CCNY-WT-EGFP; assay: Confocal imaging of CCNY-WT-EGFP membrane association in neurons treated with palmitoylation blocker; format: cell-based, rat; details: 2-bromopalmitate 100 μM, 4 hours, hippocampal neurons (FIG. 1D)
Procedure: Specifically, (A) is a confocal single-plane image of hippocampal neurons overexpressing EGFP-tagged CCNY-WT. […] The scale bars are 20 μm (top) and 5 μm (bottom). […] The scale bar is 20 μm.
HEK 293T cells were grown in DMEM (Gibco) supplemented with 10% fetal bovine serum. Hippocampal neuronal cultures were prepared from E18 Sprague-Dawley (SD) rat embryos. The hippocampal neurons were grown on poly-D-lysine ([…]; Sigma)-coated 18 mm glass coverslips and maintained for 10 to 21 days in vitro (DIV) in 12-well plates containing B27 and Glutamax-supplemented Neurobasal medium (Gibco) at 37° C. in an incubator equilibrated with 5% CO2 (Cho et al., 2015). The culture contains glial cells that were grown up to 70% to 80% confluency, where further growth was inhibited by treatment of 5-fluoro-2′-deoxyuridine (FUdR) ([…]; Sigma).
Neurons were transfected at 10 to 15 DIV using Lipofectamine 2000 (Invitrogen) for 1 to 6 days, and then experiments were performed at 14 to 17 DIV. All experiments handling animals and their embryos were performed in accordance with the guidelines and regulations of the Korea Institute of Science and Technology (KIST). All experimental protocols were approved by the KIST Institutional Animal Care and Use Committee (IACUC; approval number 2018-048). […]

PSD-95 = assay: Acyl-biotinyl exchange (ABE) assay of PSD-95 palmitoylation (positive control) in HEK293T cells; format: cell-based; details: in the presence of 2-bromopalmitate, HEK293T cells (FIG. 3C)
Procedure: as §1, §2

With `CCCCCCCCCCCCCCC(Br)C(=O)O` (stereo not shown) [2-bromopalmitate] the “palmitoylation of CCNY-WT-EGFP (ABE assay)” value (CCNY; 2-bromopalmitate 30 μM) was “no palmitoylation was detected; also recorded: blocked”, the “palmitoylation of CCNY-WT-EGFP (ABE assay)” value (CCNY; 2-bromopalmitate 100 μM) was “no palmitoylation was detected; also recorded: blocked” and the “membrane-associated localization of CCNY-WT-EGFP on the neuronal cell surface” value [1] was “altered”. For the same compound, the “palmitoylation of PSD-95 (ABE assay)” value (PSD-95) was “inhibited”.
